Test results published in PMC8881610 (Nature Communications, 2022).
Changes are numbered by the printed parent chain. Read-outs that look alike come from different tables or passages of the source. Where a SMILES comes first, the peptide text is derived from it. [ ]: non-standard residue; d: D form. Aib = CC(C)(N)C(=O)O

How the values were obtained:
Assay type in all cases: cell-based
[1] = target: T1, GIPR (Homo sapiens, UniProt P48546, T345F); assay: cAMP accumulation assay (LANCE Ultra cAMP kit), GIPR WT, mutant or modified constructs; parameters: acylated tirzepatide to the full-length or modified; Flag; expressed in transfected cells; host or cells: HEK293T; details: GIPR T345F, HEK293T; for EC50: read-out: cAMP pEC50 (converted)
T1 sequence (P48546 22-466 T345F): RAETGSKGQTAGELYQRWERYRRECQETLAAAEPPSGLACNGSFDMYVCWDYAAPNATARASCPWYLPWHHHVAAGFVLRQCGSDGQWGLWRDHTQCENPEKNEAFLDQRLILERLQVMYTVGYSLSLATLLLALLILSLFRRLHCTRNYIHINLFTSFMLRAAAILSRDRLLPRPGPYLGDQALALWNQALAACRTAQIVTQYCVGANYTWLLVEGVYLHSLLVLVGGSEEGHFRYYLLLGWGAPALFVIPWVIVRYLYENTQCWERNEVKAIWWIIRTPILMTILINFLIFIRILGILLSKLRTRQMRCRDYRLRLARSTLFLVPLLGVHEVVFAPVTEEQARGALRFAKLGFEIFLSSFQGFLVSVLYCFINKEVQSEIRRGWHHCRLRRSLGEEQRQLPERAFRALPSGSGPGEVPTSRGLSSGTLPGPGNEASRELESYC
Experimental: (§1) Human embryonic kidney 293 cells containing SV40 large T-antigen (HEK293T) were cultured in DMEM (Gibco) supplemented with 10% (v/v) fetal bovine serum (FBS, Gibco), 1 mM sodium pyruvate (Gibco) and 100 units/mL penicillin and 100 μg/mL streptomycin at 37 °C in 5% CO2. Chinese hamster ovary (CHO-K1) cells were cultured in F-12 (Gibco) containing 10% FBS, 100 units/mL penicillin and 100 μg/mL streptomycin at 37 °C in 5% CO2. For cAMP and receptor expression assays, HEK293T cells were seeded into 6-well cell culture plates at a density of 7 × 10^5 cells per well. After overnight incubation, cells were transfected with GIPR, GLP-1R or GCGR construct using Lipofectamine 2000 or Lipofectamine 3000 transfection reagent (Invitrogen). For whole-cell binding assay, CHO-K1 cells were seeded into 96-well fibronectin-treated cell culture plates at a density of 3 × 10^4 cells per well. After overnight incubation, cells were transfected with GIPR, GLP-1R or GCGR construct using Lipofectamine 2000 transfection reagent (Invitrogen). Following 24 h culturing, the transfected cells were ready for use.
(§2) A BRIL fusion protein was added at the N-terminal of the ECD with a TEV protease site and 2GSA linker between them. C-terminal 45 amino acids (Q422-C466) of the receptor were truncated. LgBiT was added at the end of helix 8 with a 15-amino acid (15AA) polypeptide linker in between, followed by a TEV protease cleavage site and an OMBP-MBP tag. […] The construct and various mutants of human GIPR were cloned into pcDNA3.1 vector for cAMP accumulation and whole-cell binding assays.
(§3) For GIPR, GLP-1R and GCGR, multi-targeting agonist stimulated cAMP accumulation was measured by a LANCE Ultra cAMP kit (PerkinElmer). After 24 h culture, the transfected cells were seeded into 384-well microtiter plates at a density of 3,000 cells per well in HBSS supplemented with 5 mM HEPES, 0.1% (w/v) BSA or 0.1% (w/v) casein and 0.5 mM 3-isobutyl-1-methylxanthine. The cells were stimulated with different concentrations of peptide agonists for 40 min at RT. Eu-cAMP tracer and ULight^TM-anti-cAMP were then diluted by cAMP detection buffer and added to the plates separately to terminate the reaction. Plates were incubated at RT for 1 h and the fluorescence intensity measured at 620 nm and […] by an EnVision multilabel plate reader (PerkinElmer).

[2] = target: T2, GIPR (Homo sapiens, UniProt P48546, Y36A); assay: as above; parameters: acylated tirzepatide to the full-length or modified; Flag; expressed in transfected cells; host or cells: HEK293T; details: GIPR Y36A, HEK293T; for EC50: read-out: cAMP pEC50 (converted)
T2 sequence (P48546 22-466 Y36A): T1 sequence (P48546 22-466 T345F) with Y15A, F324T
Experimental: as §1, §2, §3

[3] = target: GCGR (Homo sapiens, UniProt P47871); assay: cAMP accumulation assay, GCGR WT, mutant or modified constructs; parameters: V5 (C); 6×His (C); expressed in transfected cells; host or cells: HEK293T; details: for EC50 / Emax: HEK293T; for Emax: HEK-293T
GCGR, sequence (P47871 26-477): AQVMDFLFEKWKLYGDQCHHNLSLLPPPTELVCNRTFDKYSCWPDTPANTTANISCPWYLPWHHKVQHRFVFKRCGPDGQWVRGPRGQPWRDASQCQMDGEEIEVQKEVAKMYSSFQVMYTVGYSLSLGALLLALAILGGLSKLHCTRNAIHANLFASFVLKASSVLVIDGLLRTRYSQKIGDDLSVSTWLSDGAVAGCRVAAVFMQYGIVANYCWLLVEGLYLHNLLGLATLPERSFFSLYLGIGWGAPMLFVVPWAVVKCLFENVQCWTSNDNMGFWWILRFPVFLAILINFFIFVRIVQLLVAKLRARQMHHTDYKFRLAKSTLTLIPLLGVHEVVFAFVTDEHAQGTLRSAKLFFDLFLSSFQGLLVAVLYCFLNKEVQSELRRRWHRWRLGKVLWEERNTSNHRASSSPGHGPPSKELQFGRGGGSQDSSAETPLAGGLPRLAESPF
Experimental: as §1, with “use. […]” for “use.”
as §3

[4] = GCGR WT, 0.1% BSA, read-out: cAMP accumulation Emax
[5] = GCGR WT, 0.1% casein, read-out: cAMP accumulation Emax

Structure (SMILES) | EC50 [1] | EC50 [2] | EC50 ([3]; GCGR WT, read-out: cAMP pEC50 (converted)) | EC50 ([3]; GCGR, n = 4, SEM, read-out: cAMP pEC50 ± S.E.M. (converted)) | Emax [3, 4] | Emax [3, 5] | Emax ([3]; GCGR WT, read-out: cAMP Emax) | Emax ([3]; GCGR, n = 4, SEM, read-out: cAMP Emax ± S.E.M.) | Emax ([1]; HEK-293T) | Emax ([2]; HEK-293T) | EC50 ([3]; GCGR WT, 0.1% BSA, read-out: cAMP accumulation pEC50 (converted)) | reduction of cAMP accumulation vs peptide 20 ([3]; GCGR, 0.1% BSA) | EC50 for cAMP accumulation relative to peptide 20 ([3]; GCGR, 0.1% casein)
CC[C@H](C)[C@H](NC(=O)[C@H](CC(C)C)NC(=O)[C@H](Cc1c[nH]c2ccccc12)NC(=O)[C@H](CCC(N)=O)NC(=O)[C@@H](NC(=O)[C@H](Cc1ccccc1)NC(=O)[C@H](C)NC(=O)[C@H](CCCCNC(=O)COCCOCCNC(=O)COCCOCCNC(=O)CC[C@H](NC(=O)CCCCCCCCCCCCCCCCCCC(=O)O)C(=O)O)NC(=O)[C@H](CCC(N)=O)NC(=O)[C@H](C)NC(=O)[C@@H](NC(=O)[C@H](CCCCN)NC(=O)[C@H](CC(=O)O)NC(=O)[C@H](CC(C)C)NC(=O)C(C)(C)NC(=O)[C@@H](NC(=O)[C@H](CO)NC(=O)[C@H](Cc1ccc(O)cc1)NC(=O)[C@H](CC(=O)O)NC(=O)[C@H](CO)NC(=O)[C@@H](NC(=O)[C@H](Cc1ccccc1)NC(=O)[C@@H](NC(=O)CNC(=O)[C@H](CCC(=O)O)NC(=O)C(C)(C)NC(=O)[C@@H](N)Cc1ccc(O)cc1)[C@@H](C)O)[C@@H](C)O)[C@@H](C)CC)[C@@H](C)CC)C(C)C)C(=O)N[C@@H](C)C(=O)NCC(=O)NCC(=O)N1CCC[C@H]1C(=O)N[C@@H](CO)C(=O)N[C@@H](CO)C(=O)NCC(=O)N[C@@H](C)C(=O)N1CCC[C@H]1C(=O)N1CCC[C@H]1C(=O)N1CCC[C@H]1C(=O)N[C@@H](CO)C(N)=O [Tirzepatide] | 0.0141 nM | 0.0589 nM | – | – | – | – | – | – | – | – | – | – | –
CCCCCCCCCCCCCCCC(=O)N[C@@H](CCC(=O)NCCCC[C@H](NC(=O)[C@H](CC(=O)O)NC(=O)[C@H](CO)NC(=O)[C@@H](NC(=O)[C@H](Cc1ccccc1)NC(=O)[C@@H](NC(=O)CNC(=O)[C@H](CCC(N)=O)NC(=O)C(C)(C)NC(=O)[C@@H](N)Cc1c[nH]cn1)[C@@H](C)O)[C@@H](C)O)C(=O)N[C@@H](CO)C(=O)N[C@@H](CCCCN)C(=O)N[C@@H](Cc1ccc(O)cc1)C(=O)N[C@@H](CC(C)C)C(=O)N[C@@H](CC(=O)O)C(=O)N[C@@H](CCC(=O)O)C(=O)N[C@@H](CCCNC(=N)N)C(=O)N[C@@H](C)C(=O)N[C@@H](C)C(=O)N[C@@H](CCC(N)=O)C(=O)N[C@@H](CC(=O)O)C(=O)N[C@@H](Cc1ccccc1)C(=O)N[C@H](C(=O)N[C@@H](CCC(N)=O)C(=O)N[C@@H](Cc1c[nH]c2ccccc12)C(=O)N[C@@H](CC(C)C)C(=O)N[C@@H](CC(C)C)C(=O)N[C@@H](CC(=O)O)C(=O)NCC(=O)NCC(=O)N1CCC[C@H]1C(=O)N[C@@H](CO)C(=O)N[C@@H](CO)C(=O)NCC(=O)N[C@@H](C)C(=O)N1CCC[C@H]1C(=O)N1CCC[C@H]1C(=O)N1CCC[C@H]1C(=O)N[C@@H](CO)C(N)=O)C(C)C)C(=O)O [Peptide 20] | 0.00794 nM | 0.0123 nM | 0.00562 nM | 0.00263 nM | 101 ± 1.36% | 100.2 ± 0.86% | 99.3 ± 1.73% | 101 ± 1.68% | 99.6 ± 2.09% | 100 ± 1.62% | – | – | –
CC(C)C[C@H](NC(=O)[C@H](CC(C)C)NC(=O)[C@H](Cc1c[nH]c2ccccc12)NC(=O)[C@H](CCC(N)=O)NC(=O)[C@@H](NC(=O)[C@H](Cc1ccccc1)NC(=O)[C@H](CC(=O)O)NC(=O)[C@H](CCC(N)=O)NC(=O)[C@H](C)NC(=O)[C@H](C)NC(=O)[C@H](CCCNC(=N)N)NC(=O)[C@H](CCC(=O)O)NC(=O)[C@H](CC(=O)O)NC(=O)[C@H](CC(C)C)NC(=O)[C@H](Cc1ccc(O)cc1)NC(=O)[C@H](CCCCN)NC(=O)[C@H](CO)NC(=O)[C@H](CCCCN)NC(=O)[C@H](CC(=O)O)NC(=O)[C@H](CO)NC(=O)[C@@H](NC(=O)[C@H](Cc1ccccc1)NC(=O)[C@@H](NC(=O)CNC(=O)[C@H](CCC(N)=O)NC(=O)C(C)(C)NC(=O)[C@@H](N)Cc1c[nH]cn1)[C@@H](C)O)[C@@H](C)O)C(C)C)C(=O)N[C@@H](CC(=O)O)C(=O)NCC(=O)NCC(=O)N1CCC[C@H]1C(=O)N[C@@H](CO)C(=O)N[C@@H](CO)C(=O)NCC(=O)N[C@@H](C)C(=O)N1CCC[C@H]1C(=O)N1CCC[C@H]1C(=O)N1CCC[C@H]1C(=O)N[C@@H](CO)C(N)=O [Non-lipidated peptide 20] (H-H[Aib]QGTFTSDKSKYLDERAAQDFVQWLLDGGPSSGAPPPS-NH2; N-terminus and C-terminus assumed) | – | – | – | – | 105 ± 2.16% | 103 ± 1.98% | – | – | – | – | 1.95 nM | 759 fold | −1,514 fold
